Tests used:
Type in all cases: cell-based
GR [1] = target: T1, GR (Homo sapiens, UniProt P04150); experiment: Luciferase assays, GR-responsive reporters, A549 cells; design: endogenous in cells; host or cells: A549; settings: for Dose dependent: whether the drug acted dose-dependently on GR-luciferase reporters; for GR activity (GR-mediated induction of pENaC-luc reporter): pENaC-luc and pSV40-rl
T1 sequence (P04150 1-777): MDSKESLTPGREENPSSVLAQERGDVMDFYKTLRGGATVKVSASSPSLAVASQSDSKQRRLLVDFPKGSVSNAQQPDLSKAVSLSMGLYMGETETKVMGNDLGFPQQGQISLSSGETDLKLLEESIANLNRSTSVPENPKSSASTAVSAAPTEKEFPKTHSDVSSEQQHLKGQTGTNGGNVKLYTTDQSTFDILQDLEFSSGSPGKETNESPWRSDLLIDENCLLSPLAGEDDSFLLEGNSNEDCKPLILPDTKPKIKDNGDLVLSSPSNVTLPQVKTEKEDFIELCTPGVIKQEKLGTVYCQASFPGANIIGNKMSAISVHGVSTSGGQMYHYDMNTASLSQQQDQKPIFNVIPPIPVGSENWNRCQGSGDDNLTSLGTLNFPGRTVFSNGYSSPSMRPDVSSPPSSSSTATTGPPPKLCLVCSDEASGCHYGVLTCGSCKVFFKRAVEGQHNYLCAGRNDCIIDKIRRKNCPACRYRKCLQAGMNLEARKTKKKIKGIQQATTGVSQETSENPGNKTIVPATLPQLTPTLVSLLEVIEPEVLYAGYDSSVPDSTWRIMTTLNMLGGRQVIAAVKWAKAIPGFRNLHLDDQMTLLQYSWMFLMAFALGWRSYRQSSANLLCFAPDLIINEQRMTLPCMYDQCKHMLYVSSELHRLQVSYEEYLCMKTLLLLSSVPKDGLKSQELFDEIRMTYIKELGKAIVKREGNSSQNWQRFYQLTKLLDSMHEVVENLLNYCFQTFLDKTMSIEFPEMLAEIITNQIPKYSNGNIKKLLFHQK
Method: (§1) Transfections. The day prior to transfection, ˜3×10^5 cells were plated in 6-well dishes. Transfections used Lipofectamine 2000 (Invitrogen). 4 μg of total plasmid DNA were used for each transfection. For A549 cells, 500 μL of DNA/lipofectamine complex was added to 1.5 ml of DMEM with pen/strep and 5% FBS. For U2OS cells, 500 μl of DNA/lipofectamine complex was added to 1.5 ml of Optimem. After 3-4 hours of incubation, media was replaced with standard growth media.
(§2) Luciferase assays. Luciferase assays used the Promega Dual-Luciferase Reporter system. Briefly, cells were transfected with various firefly luciferase plasmids and pSV40-RL at a ratio of 10:1. The day after transfection, cells were split into 96-well dishes and treated with dex and various drugs. Cells were harvested in 50 μl 1XPLB (Promega) 12-18 hr after drug treatment and luciferase assays were performed on 10 μl of lysate. Luminscence was detected using an Ultra Evolution plate reader (Tecan).

GR [2] = experiment: qPCR of endogenous GR target genes, cell line not distinguished (FIG. 4B, 5D); settings: with dex, 24 hr
Source text: (§3) Quantitative PCR. Total RNA isolation used Trizol and Pure Link (Invitrogen). […] Rpl19 expression was used for data normalization.

GR [3] = target: T1, GR; experiment: Multi-promoter fluorescent protein reporter compound screen for GR modulators; design: endogenous in cells; host or cells: A549; settings: A549 cells, library compounds 2.5 μM with dex 100 nM; reporter fluorescence relative to plate mean
Method: Compound Screen. A549 cells were transfected with an equal mixture of pENaC-CFP, pGILZ-YFP, pFKBP5-OFP (1.3 μg each), or with pSV40-ChFP (4 μg). The next day, cells were mixed (˜1.8×10^4 of the cells triple-transfected with pENaC-CFP, pGILZ-YFP, pFKBP5-OFP; ˜2×10^3 cells transfected with pSV40-ChFP) and replated into 96 well plates (Costar 3603). 2 hours later, library compounds (2.5 μM) and dex (100 nM) were added using a Biomek robot. The following day, cells were fixed for 4 minutes in 4% paraformaldehyde and fluorescence was measured sequentially for each reporter using a Safire plate reader (Tecan). Hits were scored based on the mean and standard deviation (s.d.) of the experimental wells on each plate. Criteria for a hit were if one reporter was more than 1.5×s.d. from the mean in duplicate, or if two reporters were more than 0.8×s.d. from the mean in duplicate. If the control SV40-ChFP was more than 2×s.d. from the mean in a single plate, or 0.8×s.d. in duplicate plates (in the same direction as the GR reporters), the well was not scored as a hit.
We used the system of Example 1 to screen a library of 1040 natural products and FDA-approved drugs for modulators of GR signaling (Abbott, A. Nature 417:109). The screen design is outlined in FIG. 2. The pENaC-CFP, pGILZ-YFP, and pFKBP5-OFP reporters indicated GR signaling, while pSV40-mCh, an internal control, excluded non-specific transcription inhibitors and toxins. We screened the library in duplicate in the presence of saturating dex (100 nM). Z′, a function that reflects the ability to discriminate between control and experimental wells (Zhang, J. H. et al., J Biomol Screen 4:67-73 (1999)), was determined for dex treatment of each GR reporter. The Z′ values were: Z′(ENAC-CFP)=0.68; Z′(GILZ-YFP)=0.64; and Z′(FKBP5-OFP)=0.66. These indicate that the screen should efficiently identify compounds that increase or decrease fluorescence from any of the three experimental promoters (Zhang, J. H. et al., J Biomol Screen 4:67-73 (1999)).

GR [4] = target: T1, GR; experiment: qPCR of endogenous GR target genes, A549 cells; design: endogenous in cells; host or cells: A549; settings: with dex, RPL19 reference
Source text: as §3

GR [5] = target: T2, GR (Rattus norvegicus, UniProt P06536); experiment: Luciferase assays, GR-responsive reporters, U2OS-GR cells; settings: pENaC-luc and pSV40-rl, with dex
T2 construct: expressed in transfected cells; host or cells: U2OS-GR
T2 sequence (P06536 1-795): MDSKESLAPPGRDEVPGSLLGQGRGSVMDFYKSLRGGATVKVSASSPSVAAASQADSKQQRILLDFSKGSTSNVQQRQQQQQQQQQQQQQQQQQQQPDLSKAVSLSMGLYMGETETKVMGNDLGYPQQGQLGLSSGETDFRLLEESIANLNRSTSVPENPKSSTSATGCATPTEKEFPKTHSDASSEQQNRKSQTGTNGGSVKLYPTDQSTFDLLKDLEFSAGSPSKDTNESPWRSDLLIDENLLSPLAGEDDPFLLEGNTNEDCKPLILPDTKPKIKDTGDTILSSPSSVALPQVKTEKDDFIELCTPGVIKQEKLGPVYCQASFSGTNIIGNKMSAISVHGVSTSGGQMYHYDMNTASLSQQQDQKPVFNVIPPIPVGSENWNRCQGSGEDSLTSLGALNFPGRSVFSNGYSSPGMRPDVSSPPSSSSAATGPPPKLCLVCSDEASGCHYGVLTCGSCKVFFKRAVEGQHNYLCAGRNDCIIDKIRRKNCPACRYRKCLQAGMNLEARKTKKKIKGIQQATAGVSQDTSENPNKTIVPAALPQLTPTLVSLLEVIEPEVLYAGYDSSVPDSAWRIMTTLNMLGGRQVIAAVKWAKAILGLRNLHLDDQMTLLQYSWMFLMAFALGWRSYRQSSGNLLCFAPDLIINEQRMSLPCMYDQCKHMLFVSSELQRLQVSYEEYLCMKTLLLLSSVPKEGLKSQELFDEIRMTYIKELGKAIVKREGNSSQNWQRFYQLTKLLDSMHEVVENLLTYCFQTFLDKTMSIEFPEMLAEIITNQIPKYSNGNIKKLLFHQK
Method: as §1, §2

Row | Molecule | Dose dependent (GR [1]) | ENaC-CFP (GR [3]) | GILZ-YFP (GR [3]) | FKBP5-OFP (GR [3]) | GR activity (GR-mediated induction of pENaC-luc reporter) (GR [1]; A549 cells, with dex) | further results
1 | Cc1cc(C2CCCCC2)n(O)c(=O)c1 [Ciclopirox olamine] | dose dependent effects and yes | ↓^c (0.8 to 2 s.d. less than the mean (↓)) | ↓ (0.8 to 2 s.d. less than the mean (↓)) | no effect | – | expression of endogenous GR target genes (qPCR), overall (GR [2]): general GR antagonist
2 | CC[C@@]1(O)C[C@H](O[C@H]2C[C@H](N(C)C)[C@H](O[C@H]3C[C@@H]4O[C@H]5CC(=O)[C@H](C)O[C@H]5O[C@@H]4[C@H](C)O3)[C@H](C)O2)c2c(cc3c(c2O)C(=O)c2c(O)ccc(O)c2C3=O)[C@H]1C(=O)OC [Cin B, Cinerubin (Cin) B] | – | – | – | – | potently inhibited GR activity | expression of endogenous GR target genes (relative mRNA, qPCR) (GR [4]): inhibited GR at the tested promoters
3 | COc1cccc2c1C(=O)c1c(O)c3c(c(O)c1C2=O)C[C@@](O)(C(=O)CO)C[C@@H]3O[C@H]1C[C@H](N)[C@H](O)[C@H](C)O1 [Doxorubicin] | – | – | – | – | inhibited GR | –
4 | CCCCCC(=O)O[C@]1(C(C)=O)CC[C@H]2[C@@H]3CCC4=CC(=O)CC[C@]4(C)[C@H]3CC[C@@]21C [Hpg. caproate, Hydroxyprogesterone caproate] | yes | No effect | ↓↓↓ (more than 2 standard deviations (s.d.) less than the mean (↓↓↓)) | ↓↓↓ (more than 2 standard deviations (s.d.) less than the mean (↓↓↓)) | – | Dose dependent (GR [1]; listed as Hpg): dose dependent effects; expression of endogenous GR target genes (qPCR), overall (GR [2]): selectively modulated endogenous GR target genes; induction of endogenous ENaC (qPCR) (GR [2]): no impact; induction of endogenous FKBP5 (qPCR) (GR [2]): reduced induction; induction of endogenous GILZ (qPCR) (GR [2]): reduced induction
5 | O=C1c2c(O)ccc(O)c2C(=O)c2c(NCCNCCO)ccc(NCCNCCO)c21 [Mitoxantrone] | yes | ↓↓↓ (more than 2 standard deviations (s.d.) less than the mean (↓↓↓)) | ↓↓↓ (more than 2 standard deviations (s.d.) less than the mean (↓↓↓)) | ↓↓↓ (more than 2 standard deviations (s.d.) less than the mean (↓↓↓)) | antagonists of GR | GR activity (luciferase reporter) (GR [5]): inhibited GR
6 | O=C1C=CC(=C(c2ccccc2)c2ccc(O)cc2)C=C1 [NSC55861] | – | – | – | – | dose dependently reduced GR activity | –
7 | O=C(/C=C/c1ccccc1)/C=C/c1ccccc1O [NSC636788] | – | – | – | – | dose dependently reduced GR activity | –
8 | COC(=O)[C@H]1[C@H]2C[C@@H]3c4[nH]c5cc(OC)ccc5c4CCN3C[C@H]2C[C@@H](OC(=O)c2cc(OC)c(OC)c(OC)c2)[C@@H]1OC [Reserpine] | no | ↑ (0.8 to 2 s.d. greater than the mean (↑)) | ↑ (0.8 to 2 s.d. greater than the mean (↑)) | ↑ (0.8 to 2 s.d. greater than the mean (↑)) | – | –
9 | COc1cccc2c1C(=O)c1c(O)c3c(c(O)c1C2=O)C[C@@](O)(C(C)=O)C[C@@H]3O[C@H]1C[C@H](N)[C@H](O)[C@H](C)O1 [daunorubicin] | – | – | – | – | inhibited GR | –
10 | a amanitin | – | – | – | – | – | effect on GR-dependent reporter pENaC-luc compared with GR-independent constitutive reporter pSV40-rl (GR [1]; A549 cells, with dex): reduced the activity of both reporters to similar extents

Second part, led by results:

Row | Dose dependent (GR [1]) | ENaC-CFP (GR [3]) | GILZ-YFP (GR [3]) | Molecule | FKBP5-OFP (GR [3]) | GR activity (GR-mediated induction of pENaC-luc reporter) (GR [1]; A549 cells, with dex) | further results
11 | no | No effect | ↓ (0.8 to 2 s.d. less than the mean (↓)) | O=c1oc2c(O)c(O)cc3c(=O)oc4c(O)c(O)cc1c4c23 [Ellagic Acid] | ↓ (0.8 to 2 s.d. less than the mean (↓)) | – | –
12 | no | No effect | ↓ (0.8 to 2 s.d. less than the mean (↓)) | C[N+]1(C)CCCC(OC(=O)C(O)(c2ccccc2)c2ccccc2)C1 (stereo not shown) [Mepenzolate] | ↓ (0.8 to 2 s.d. less than the mean (↓)) | – | –
13 | yes | ↓ (0.8 to 2 s.d. less than the mean (↓)) | No effect | O=C1C=CC(=C(c2ccc(O)cc2)c2ccc(O)cc2)C=C1 [Rosolic Acid] | ↓ (0.8 to 2 s.d. less than the mean (↓)) | – | Dose dependent (GR [1]; listed as rosolic acid): dose dependent effects; expression of endogenous GR target genes (qPCR), overall (GR [2]): selectively modulated endogenous GR target genes; induction of endogenous ENaC (qPCR) (GR [2]): inhibited; induction of endogenous FKBP5 (qPCR) (GR [2]): inhibited; induction of endogenous GILZ (qPCR) (GR [2]): failed to inhibit
14 | no | No effect | No effect | CS(=O)(=O)c1ccc([C@@H](O)[C@@H](CO)NC(=O)C(Cl)Cl)cc1 [Thiamphenicol] | ↑↑↑^e (more than 2 s.d. greater than the mean (↑↑↑)) | – | –

Reference: patent US8940705B2, “Method of treating disease and selectively modulating transcriptional regulation by a glucocorticoid receptor by administering aclacinomycin and dexamethasone” (The Regents of the University of California, priority 2009, dated 2015)
